Data as given in US12435083B2, “Cyclopropyl-(hetero)aryl-substituted ethylsulphonyl-pyridine derivatives” (BOEHRINGER INGELHEIM VETMEDICA GMBH, priority 2021, dated 2025).
Like-named read-outs stand apart in the source and are kept apart here.

How the values were obtained:
Aedes aegypti L1 larvae = assay: Activity against larvae of Aedes aegypti (L1 larvae, 384-well, image-based mortality); details: read-out: EC50 (percentage of mortality, A. aegypti L1 larvae)
Protocol: Example 3: Screening Method to Test Activity of Compounds of Formula (I) Against Larvae of Aedes aegypti
Eight A. aegypti L1 larvae in a total volume of 64 μL water were added to 384-well microplates containing compounds formulated in 100% DMSO. The plates were incubated for 48 h at 27° C. Individual well images were acquired and analyzed using a pipeline to quantitatively assess the amount of larvae biomass accumulating at the bottom of the well. The efficacy of a compound at a given dose is expressed as “percentage of mortality” and determined by comparison to average biomass descriptors of positive and negative control wells containing 1.0 μM Fipronil or DMSO only, respectively. Dose response assay were conducted to determine an EC50 value.

[1] = system: Spodoptera litura 2nd-instar larvae; assay: Insecticidal test on Spodoptera litura (cabbage leaf dip); details: foliar, 192 h, 8 days after inoculation, read-out: activity level (corrected mortality rate), Spodoptera litura
Protocol: Example 11: Insecticidal Test on Spodoptera litura
The compounds of formula (I) of the present invention or salts thereof were separately dispersed in water and diluted to 500 ppm. Cabbage leaves were dipped in the dispersion for about 30 seconds. After air dried, the leaves were placed in a plastic Petri dish with a diameter of 9 cm and inoculated with ten 2nd-instar larvae of Spodoptera litura, after which the dish was closed and then allowed to stand in a room at 25° C. 8 days after the inoculation, the numbers of the dead and alive insects were counted. The corrected mortality rate was calculated according to the following formula and the insecticidal activity was evaluated according to the following criteria. Corrected mortality rate (%)=100×(Survival rate in an untreated plot−Survival rate in a treated plot)/Survival rate in an untreated plot • A: the corrected mortality rate is 100% • B: the corrected mortality rate is 90 to 99% • C: the corrected mortality rate is 80 to 89% • D: the corrected mortality rate is 50 to 79%

Plutella xylostella = assay: Insecticidal test on Plutella xylostella (Chinese cabbage seedling dip); details: 144 h, 500 ppm, seedling dip, 6 days after dip treatment, read-out: activity level (corrected mortality rate), Plutella xylostella
Procedure, shortened: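 Compounds dispersed in water at 500 ppm; Chinese cabbage seedlings bearing eggs laid by released adults over 2 days were dipped ~30 s, air-dried and kept at 25° C. Dead and live insects counted 6 days later; corrected mortality versus untreated plot scored A (100%), B (90–99%), C (80–89%), D (50–79%).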

[2] = system: Laodelphax striatellus 3rd-instar nymphs; assay: Insecticidal test on Laodelphax striatellus (rice seedling dip); details: 192 h, 500 ppm, seedling dip, 8 days after inoculation, read-out: activity level (corrected mortality rate), Laodelphax striatellus
Protocol: Example 13: Insecticidal Test on Laodelphax striatellus
The compounds of formula (I) of the present invention or salts thereof were separately dispersed in water and diluted to 500 ppm. Rice plant seedlings were dipped in the dispersion for about 30 seconds. After air dried, the seedlings were put into a separate glass test tube and inoculated with ten 3rd-instar nymphs of Laodelphax striatellus and then the glass test tube was kept in a room at 25° C. 8 days after the inoculation, the numbers of the dead and alive insects were counted. The corrected mortality rate was calculated according to the following formula and the insecticidal activity was evaluated according to the following criteria. Corrected mortality rate (%)=100×(Survival rate in an untreated plot−Survival rate in a treated plot)/Survival rate in an untreated plot • A: the corrected mortality rate is 100% • B: the corrected mortality rate is 90 to 99% • C: the corrected mortality rate is 80 to 89% • D: the corrected mortality rate is 50 to 79%

Myzus persicae = assay: Insecticidal test on Myzus persicae (foliar application on potted Chinese cabbage); details: 144 h, read-out: control efficacy level (control rate), Myzus persicae
From the text: Example 14: Insecticidal Test on Myzus persicae
The compounds of formula (I) of the present invention or salts thereof were separately dispersed in water and diluted to 500 ppm. Chinese cabbage plants were planted in plastic pots (diameter: 8 cm, height: 8 cm). Aphids (Myzus persicae) were propagated on the plants and then the number of surviving aphids was counted. The dispersion was applied to the foliage of the potted plants. After the plants were air dried, these were kept in a greenhouse. 6 days after the application, the number of the alive insects was counted on the plants. The control rate was calculated according to the following formula and the control efficacy was evaluated according to the following criteria. Control rate (%)=100−{(T×Ca)/(Ta×C)}×100 • Ta: the number of alive insects before the foliar application in a treated plot • T: the number of alive insects after the foliar application in a treated plot • Ca: the number of alive insects before the foliar application in an untreated plot • C: the number of alive insects after the foliar application in an untreated plot • A: the control rate is 100% • B: the control rate is 90 to 99% • C: the control rate is 80 to 89% • D: the control rate is 50 to 79%

[3] = system: adult Ctenocephalides felis fleas; assay: Contact activity against adult Ctenocephalides felis (treated surface, motility by machine vision, 24 h); details: treated surface, 24h, read-out: EC80 (% motility reduction, adult C. felis, contact)
From the text: Example 7: Screening Method to Test Contact Activity of Compounds of Formula (I) Against Adult Ctenocephalides felis

[4] = system: adult Ctenocephalides felis fleas; assay: Ingestion activity (flea membrane feeding, blood feeding) against adult Ctenocephalides felis; details: Ctenocephalides felis
[5] = system: adult Rhipicephalus sanguineus ticks; assay: Contact activity against adult Rhipicephalus sanguineus (coated vial, mortality at 48 h); details: Rhipicephalus sanguineus
Procedure, shortened: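 Compound in acetone/0.02% Triton X-100 coated onto glass vial walls and cap filter paper; after drying, ten adult ticks added per vial. Held at 24° C, 95% relative humidity, 12 h light/dark cycle. Mortality scored visually at 48 hours; EC50 derived from a dose-response series.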

[6] = system: nymphs of Dermacentor variabilis ticks; assay: Oral rat-tick efficacy against nymphs of Dermacentor variabilis ticks; assay type: in vivo; details: rats, oral gavage 10 mg/kg on Day 0, tick count on Day 3
Protocol: Example 10: Comparison of Oral Rat-Tick Efficacy Data for Selected Specific Compounds of Formula (I) Against Nymphs of Dermacentor variabilis Ticks
On Day −1, rats were sedated, fitted with an Elizabethan collar, and infested with approximately 35 nymphal stage D. variabilis ticks. On Day 0, each rat was treated via oral gavage with the appropriate formulation of placebo, positive control, or test compound at the appropriate dose. On Day 3, all rats were euthanized, and ticks were removed, counted, and disposed of. In Table 2 efficacy is expressed in % mortality compared to negative controls containing compound vehicle only.

[7] = 500 ppm, foliar application, 6 days after application
[8] = bovine blood, 24h post treatment, read-out: EC80 (% motility reduction, adult C. felis, ingestion via membrane feeding)
[9] = 48 hours post-treatment, coated vial, read-out: EC50 (percentage mortality, adult R. sanguineus, contact)
[10] = contact assay, >100 μM = not active at the top concentration, read-out: R. sanguineus contact activity EC50
[11] = 24 h, flea membrane feeding (ingestion, blood feeding) assay, EC80, read-out: C. felis membrane feeding (ingestion/blood feeding) activity EC80

Compound | EC50 (Aedes aegypti L1 larvae; 48 h) [µM] | mortality at 500 ppm [1] [%] | mortality at 500 ppm (Plutella xylostella) [%] | mortality at 500 ppm [2] [%] | pest or weed control at 500 ppm (Myzus persicae; foliar) [%] | EC50 (Aedes aegypti L1 larvae; 48 h at 27° C., 384-well) [µM] | EC80 [3] [µM] | pest or weed control at 500 ppm (Myzus persicae; [7]) [%] | EC80 [4, 8] [µM] | EC50 [5, 9] [µM] | EC50 [5, 10] [µM] | EC80 [4, 11] [µM] | EC50 ([5]; 48 h, read-out: EC50 (percentage mortality, adult R. sanguineus, contact)) [µM] | EC80 ([4]; 24 h, read-out: EC80 (% motility reduction, adult C. felis, ingestion via membrane feeding)) [µM] | Observed efficacy (% mortality compared to negative controls) [6] [%]
CCS(=O)(=O)c1cc(-c2cccc(C3CC3)n2)cnc1-c1nc2cc(C(F)(F)C(F)(F)F)nnc2n1C [Compound 3, 6-cyclopropyl-5′-(ethanesulfonyl)-6′-[7-methyl-3-(1,1,2,2,2-pentafluoroethyl)imidazo[4,5-c]pyridazin-6-yl]-2,3′-bipyridine] | < 0.04 | 100 | 100 | 100 | 100 |  |  |  |  |  |  |  |  |  | 
CCS(=O)(=O)c1cc(-c2ccc(C3CC3)cc2)cnc1-c1nc2cc(C(F)(F)F)cnc2n1C [Compound 41, 5-(4-cyclopropylphenyl)-3-(ethanesulfonyl)-2-[3-methyl-6-(trifluoromethyl)imidazo[4,5-b]pyridin-2-yl]pyridine] |  | 100 | 100 | 100 |  | < 0.04 | 1 to 10 | 100 |  |  |  |  |  |  | 
CCS(=O)(=O)c1cc(-c2ccc(C3CC3)cc2)cnc1-c1nc2cc(S(=O)(=O)C(F)(F)F)ccc2n1C [Compound 42, 2-[5-(4-cyclopropylphenyl)-3-(ethanesulfonyl)pyridin-2-yl]-1-methyl-5-trifluoromethanesulfonyl-1,3-benzodiazole] |  | 100 | 100 |  |  | < 0.04 | 1 to 10 |  | 1 to 10 |  |  |  |  |  | 
CCS(=O)(=O)c1cc(-c2ccc(C3CC3)cc2)cnc1-c1nc2cc([S+]([O-])C(F)(F)F)ccc2n1C (stereo not drawn) [Compound 43, 2-[5-(4-cyclopropylphenyl)-3-(ethanesulfonyl)pyridin-2-yl]-1-methyl-5-trifluoromethanesulfinyl-1,3-benzodiazole] |  | 100 | 100 |  |  | < 0.04 | 1 to 10 | 100 | 1 to 10 |  |  |  |  |  | 
CCS(=O)(=O)c1cc(-c2ccc(C3CC3)cc2)cnc1-c1nc2cc(C(F)(F)F)n(C3CC3)c(=O)c2n1C [Compound 45, 5-cyclopropyl-2-[5-(4-cyclopropylphenyl)-3-(ethanesulfonyl)pyridin-2-yl]-3-methyl-6-(trifluoromethyl)imidazo[4,5-c]pyridin-4-one] |  | 100 | 100 | 100 |  | < 0.04 |  | 100 | 1 to 10 | < 10 | < 10 | 1 to 10 |  |  | 
CCS(=O)(=O)c1cc(-c2ccc(C3CC3)cc2)cnc1-c1cc2n(CC3CC3)cc(C(F)(F)F)cc-2n1 [Compound 96, 2-[4-(cyclopropylmethyl)-6-(trifluoromethyl)pyrrolo[3,2-b]pyridin-2-yl]-5-(4-cyclopropylphenyl)-3-(ethanesulfonyl)pyridine] |  | 100 | 100 | 100 |  |  |  | 100 |  | < 10 | 10 to 100 | 1 to 10 |  |  | 
CCS(=O)(=O)c1cc(-c2ccc(C3(C#N)CC3)cc2)cnc1-c1nc2cc(C(F)(F)C(F)(F)F)ncc2n1C [Compound 115, 1-[4-[5-(ethanesulfonyl)-6-[3-methyl-6-(1,1,2,2,2-pentafluoroethyl)imidazo[4,5-c]pyridin-2-yl]pyridin-3-yl]phenyl]cyclopropane-1-carbonitrile] |  | 100 | 100 | 100 |  | < 0.04 | < 1 | 100 | < 1 | 10 to 100 | 10 to 100 | < 1 |  |  | 
CCS(=O)(=O)c1cc(-c2cc(C3CC3)ccn2)cnc1-c1nc2cc(C(F)(F)C(F)(F)F)cnc2n1C [Compound 182, 4-cyclopropyl-5′-(ethanesulfonyl)-6′-[3-methyl-6-(1,1,2,2,2-pentafluoroethyl)-3H-imidazo[4,5-b]pyridin-2-yl]-2,3′-bipyridine] |  | 100 | 100 | 100 | 100 |  |  |  |  |  |  |  | 10 to 100 | < 1 | 
CCS(=O)(=O)c1cc(-c2ccc(C3CC3)cc2)cnc1-c1nc2cc(C(C)(F)F)cnc2n1C [Compound 194, 5-(4-cyclopropylphenyl)-2-[6-(1,1-difluoroethyl)-3-methylimidazo[4,5-b]pyridin-2-yl]-3-(ethanesulfonyl)pyridine] |  | 100 | 100 | 100 |  |  |  | 100 |  | 10 to 100 |  |  |  |  | 
CCS(=O)(=O)c1cc(-c2ccc(C3(C#N)CC3)cc2)cnc1-c1nc2cc(C(F)(F)F)cn(CC(F)F)c-2c1F [compound 67] |  |  |  |  |  |  |  |  |  |  |  |  |  |  | >95
CCS(=O)(=O)c1cc(-c2cccc(C3CC3)n2)cnc1-c1nc2cc(C(F)(F)C(F)(F)F)cnc2n1C [compound 112] |  | 100 | 100 |  |  | < 0.04 | < 1 | 100 | 1 to 10 | 10 to 100 | 10 to 100 | 1 to 10 |  |  | 
CCS(=O)(=O)c1cc(-c2ccc(C3(C#N)CC3)cc2)cnc1-c1ccc(OCC(F)(F)C(F)(F)F)cn1 [compound 128] |  | 100 | 100 | 100 |  |  | 1 to 10 | 100 |  | < 10 |  |  |  |  | 
